ChEMBL document CHEMBL3745605, “Aspernigrins with anti-HIV-1 activities from the marine-derived fungus Aspergillus niger SCSIO Jcsw6F30” (Bioorg Med Chem Lett, 2016)
Activity calls are given as the source filed them. The calls are words filed in the database; no cut-off is given here. Bridge positions count the residues as written; N and C are the ends. Square brackets hold non-standard residues; d marks the D form. Peptide text beside a SMILES is read from it.

test system: Human immunodeficiency virus 1; experiment: Antiviral activity against HIV-1 SF162 infected in TZM-bl cells at 50 uM after 2 days by luciferase reporter gene assay; type: functional, cell-based; details: SF162 ISOLATE

SMILES	Activity
COC(=O)[C@@H](C)CC(=O)NC(=O)c1cn([C@@H](Cc2ccccc2)c2cc(OC)cc(=O)o2)c(Cc2ccccc2)cc1=O	inactive
COc1cc([C@H](Cc2ccccc2)n2cc(C(N)=O)c(=O)cc2Cc2ccccc2)oc(=O)c1	inactive
COc1cc(OC)c2c(O)c3c(=O)cc(C)oc3cc2c1	inactive
COc1cc(O)cc2cc3c(c(O)c12)C(=O)CC(C)(O)O3 (stereo not drawn)	inactive

test system: Human immunodeficiency virus 1; experiment: Antiviral activity against HIV-1 SF162 infected in TZM-bl cells after 2 days by luciferase reporter gene assay; type: functional, cell-based; details: Human immunodeficiency virus 1, SF162 ISOLATE, 48 h

IC50	SMILES
83.2 µM	NC(=O)c1c[nH]c(Cc2ccccc2)cc1=O
0.8 µM	Nc1nc(NC2CC2)c2ncn([C@H]3C=C[C@@H](CO)C3)c2n1 [ABACAVIR]
1.4 µM	CC(C)C[C@@H]1NC(=O)[C@@H](CC(C)C)NC(=O)[C@H](C(C)C)NC(=O)[C@H]2CSSC[C@@H](NC1=O)C(=O)N2 (cyclo(L[dC][dC]V[dL]); disulfide 2-3)
1.8 µM	COc1ccc(S(=O)(=O)O)cc1/N=N/c1c(S(=O)(=O)O)cc2cc(Nc3nc(Nc4ccccc4)nc(Nc4cc(C)c(/N=N/c5cc(S(=O)(=O)O)cc6cc(S(=O)(=O)O)cc(O)c56)cc4OC)n3)ccc2c1O

Continued, molecule first:

SMILES	IC50
COc1cc([C@H](Cc2ccccc2)n2cc(C(=O)NC(=O)C[C@H](C)C(=O)O)c(=O)cc2Cc2ccccc2)oc(=O)c1	4.7 µM
COc1cc(O)c2c(O)c3c(=O)cc(C)oc3cc2c1 [RUBROFUSARIN]	56.2 µM

test system: not listed separately; experiment: Cytotoxicity against human TZM-bl cells after 2 days by colorimetric XTT assay; type: cell-based; details: not given

SMILES	CC50 at 48 h
NC(=O)c1c[nH]c(Cc2ccccc2)cc1=O	583 µM
COc1cc([C@H](Cc2ccccc2)n2cc(C(=O)NC(=O)C[C@H](C)C(=O)O)c(=O)cc2Cc2ccccc2)oc(=O)c1	35 µM
COc1cc(O)c2c(O)c3c(=O)cc(C)oc3cc2c1 [RUBROFUSARIN]	1020 µM
CC(C)C[C@@H]1NC(=O)[C@@H](CC(C)C)NC(=O)[C@H](C(C)C)NC(=O)[C@H]2CSSC[C@@H](NC1=O)C(=O)N2 (cyclo(L[dC][dC]V[dL]); disulfide 2-3)	16.4 µM

test system: not listed separately; experiment: Selectivity index, ratio of CC50 for human TZM-bl cells to IC50 for HIV-1 SF162 infected in TZM-bl cells; type: functional; details: not given

SMILES	Ratio CC50/IC50
NC(=O)c1c[nH]c(Cc2ccccc2)cc1=O	7
COc1cc([C@H](Cc2ccccc2)n2cc(C(=O)NC(=O)C[C@H](C)C(=O)O)c(=O)cc2Cc2ccccc2)oc(=O)c1	7.5
COc1cc(O)c2c(O)c3c(=O)cc(C)oc3cc2c1 [RUBROFUSARIN]	18.1
CC(C)C[C@@H]1NC(=O)[C@@H](CC(C)C)NC(=O)[C@H](C(C)C)NC(=O)[C@H]2CSSC[C@@H](NC1=O)C(=O)N2 (cyclo(L[dC][dC]V[dL]); disulfide 2-3)	11.4
